According to the supplement of paper PMC10307832:

Assays:
Experiment in all cases: relative viability (nuclei count vs DMSO), 5 days (fraction); higher = more cells survive
Serdemetan + Vorinostat = compound: c1ccc2c(CCNc3ccc(Nc4ccncc4)cc3)c[nH]c2c1 [Serdemetan] + O=C(CCCCCCC(=O)Nc1ccccc1)NO [Vorinostat] (partner 1 µM)
In short: (§1)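 Relative viability is defined as nuclei in treated wells over nuclei in vehicle wells. Duplicate plates were run and medians reported. Lung cancer cell lines in 1536-well plates were dosed by pin tool one day after seeding, with one drug or with a fixed anchor-drug dose plus five library-drug doses (not always all listed) in √10 steps, and nuclei were counted after 5 days.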

Selisistat + Phenformin = compound: C1CC(C2=C(C1)C3=C(N2)C=CC(=C3)Cl)C(=O)N [Selisistat] + N=C(N)NC(=N)NCCc1ccccc1 [Phenformin] (partner 250 µM)
In short: as §1

Serdemetan + Lapatinib = compound: c1ccc2c(CCNc3ccc(Nc4ccncc4)cc3)c[nH]c2c1 [Serdemetan] + CS(=O)(=O)CCNCc1ccc(-c2ccc3ncnc(Nc4ccc(OCc5cccc(F)c5)c(Cl)c4)c3c2)o1 [Lapatinib] (partner 2 µM)
In short: as §1

Selisistat + Vorinostat = compound: C1CC(C2=C(C1)C3=C(N2)C=CC(=C3)Cl)C(=O)N [Selisistat] + O=C(CCCCCCC(=O)Nc1ccccc1)NO [Vorinostat] (partner 1 µM)
In short: as §1

Row | Cell Line | relative viability (Serdemetan + Vorinostat; first compound 0.04 µM) | relative viability (Serdemetan + Vorinostat; first compound 0.1265 µM) | relative viability (Serdemetan + Vorinostat; first compound 0.4 µM) | relative viability (Serdemetan + Vorinostat; first compound 1.265 µM) | relative viability (Serdemetan + Vorinostat; first compound 4 µM) | relative viability (Selisistat + Phenformin; first compound 0.4 µM) | relative viability (Selisistat + Phenformin; first compound 1.265 µM) | relative viability (Selisistat + Phenformin; first compound 4 µM) | relative viability (Selisistat + Phenformin; first compound 12.65 µM) | relative viability (Selisistat + Phenformin; first compound 40 µM) | relative viability (Serdemetan + Lapatinib; first compound 0.04 µM) | relative viability (Serdemetan + Lapatinib; first compound 0.1265 µM) | relative viability (Serdemetan + Lapatinib; first compound 0.4 µM) | relative viability (Serdemetan + Lapatinib; first compound 1.265 µM) | relative viability (Serdemetan + Lapatinib; first compound 4 µM) | relative viability (Selisistat + Vorinostat; first compound 0.4 µM) | relative viability (Selisistat + Vorinostat; first compound 1.265 µM) | relative viability (Selisistat + Vorinostat; first compound 4 µM) | relative viability (Selisistat + Vorinostat; first compound 12.65 µM) | relative viability (Selisistat + Vorinostat; first compound 40 µM)
1 | NCI-H2023 | 0.48 | 0.708 | 0.53 | 0.343 | 0.258 | 0.413 | 0.398 | 0.455 | 0.312 | 0.357 | 0.709 | 0.861 | 0.742 | 0.387 | 0.253 | 0.662 | 0.786 | 0.784 | 0.674 | 0.853
2 | COR-L 105 | 0.863 | 0.96 | 0.758 | 0.861 | 0.645 | 0.479 | 0.439 | – | 0.371 | 0.421 | 0.384 | 0.372 | 0.284 | 0.335 | 0.363 | 0.892 | 0.846 | 0.876 | 0.964 | 1.21
3 | RERF-LC-KJ | 0.687 | 0.611 | 0.609 | 0.71 | 0.654 | 0.5 | 0.412 | 0.399 | 0.338 | 0.362 | 0.757 | 0.811 | 0.826 | 0.8 | 0.754 | 0.665 | 0.759 | 0.731 | 0.763 | 0.708
4 | LXF-289 | 0.754 | 0.77 | 0.718 | 0.656 | 0.646 | 0.503 | 0.517 | 0.475 | 0.499 | 0.538 | 0.857 | 0.885 | 0.851 | 0.827 | 0.759 | 0.78 | 0.83 | 0.753 | 0.799 | 0.961
5 | PC-14 | 0.718 | 0.811 | – | 0.645 | 0.266 | 0.522 | 0.415 | 0.314 | 0.488 | 0.643 | 0.335 | 0.3 | 0.295 | 0.259 | 0.251 | 0.914 | 0.764 | 0.843 | 0.776 | 0.931
6 | NCI-H650 | 0.352 | 0.478 | 0.51 | 0.405 | 0.46 | 0.499 | 0.432 | 0.441 | 0.432 | 0.485 | 0.779 | 0.844 | 1.05 | 0.667 | 0.669 | 0.396 | 0.438 | 0.632 | 0.481 | 0.548
7 | NCI-H1666 | 0.896 | 0.935 | 0.907 | – | 0.713 | 0.514 | 0.606 | 0.582 | 0.538 | 0.529 | 0.853 | 0.656 | 0.613 | 0.573 | 0.498 | 1.09 | 1.13 | 1.11 | 1.13 | 1.17
8 | NCI-H2085 | 0.761 | 0.776 | 0.695 | 0.484 | 0.524 | 0.824 | 0.717 | 0.472 | 0.735 | 0.728 | 0.814 | 0.779 | 0.74 | 0.649 | 0.501 | 0.908 | 0.855 | 0.714 | 0.828 | 0.84
9 | NCI-H1734 | 0.65 | 0.366 | 0.331 | 0.149 | 0.128 | 0.442 | 0.377 | 0.324 | 0.382 | 0.356 | 0.855 | – | 0.833 | 0.0959 | 0.195 | 0.871 | 0.68 | 0.783 | 0.843 | 0.85
10 | NCI-H2126 | 0.806 | 0.913 | 0.628 | 0.669 | 0.659 | 0.516 | 0.489 | 0.499 | 0.537 | 0.551 | 0.736 | 0.724 | 0.78 | 0.645 | 0.844 | 0.865 | 0.792 | 0.691 | 0.861 | 0.845
11 | EMC-BAC-2 | 0.463 | 0.471 | 0.495 | 0.379 | 0.399 | 0.514 | 0.502 | 0.567 | 0.517 | 0.493 | 0.909 | 0.899 | 0.92 | 0.732 | 0.841 | 0.487 | 0.515 | 0.0984 | 0.12 | 0.12
12 | NCI-H1993 | 0.935 | 0.609 | 0.669 | 0.767 | 0.782 | 0.518 | 0.545 | 0.528 | 0.556 | 0.537 | 0.873 | 0.861 | 0.75 | – | 0.768 | 0.969 | 0.782 | – | 0.848 | 0.949
13 | NCI-H520 | 0.785 | 0.688 | 0.683 | 0.438 | 0.548 | 0.598 | 0.485 | 0.577 | 0.533 | 0.528 | 0.791 | 0.91 | 0.813 | 0.813 | 0.614 | 0.722 | 0.705 | 0.814 | 0.592 | 0.794
14 | NCI-H647 | 0.517 | 0.693 | 0.645 | 0.516 | 0.483 | 0.561 | 0.499 | 0.43 | 0.324 | 0.678 | 1.06 | 1.11 | 1.1 | 0.669 | 0.475 | 0.567 | 0.604 | 0.777 | 0.639 | 0.766
15 | SK-LU-1 | 0.746 | 0.821 | 0.746 | 0.598 | 0.451 | 0.504 | 0.528 | 0.465 | 0.542 | 0.625 | 0.758 | 0.772 | 0.822 | 0.781 | 0.612 | 0.747 | 0.792 | 1.02 | 0.821 | 0.927
